Measurements as given in patent US11572399B2, “Long-acting GIP peptide analogues” (University of Copenhagen, priority 2017, dated 2023).
Several values for one entry are separate records, joined by “and”; a condition that tells them apart may be missing. Identical values can stand only once. Peptide text beside a SMILES is read from it. * marks the point of attachment. C16 diacid = O=C(O)CCCCCCCCCCCCCCC(=O)*

How the values were obtained:
human GIP receptor [1] = target: T1, human GIP receptor (Homo sapiens, UniProt P48546); assay: 125I-human GIP competition binding assay, in the presence and absence of 2% HSA; conditions: for Fold change HSA (2%)/Casein (0.1%): IC50 (plus HSA)/IC50 (minus HSA); for Ki: absence of HSA; for Binding (+/−HSA) Fold: fold change +HSA/−HSA; for Fold change in affinity, IC50 (plus HSA)/IC50 (minus HSA): presence vs absence of 2% HSA, proxy for albumin binding;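 for all read-outs here: nonspecific binding taken as radioligand bound to untransfected cells, IC50 obtained from nonlinear regression fits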
T1 construct: host or cells: COS-7, transient transfection (calcium phosphate), cDNA in pCMV-Script
T1 sequence (P48546 22-466): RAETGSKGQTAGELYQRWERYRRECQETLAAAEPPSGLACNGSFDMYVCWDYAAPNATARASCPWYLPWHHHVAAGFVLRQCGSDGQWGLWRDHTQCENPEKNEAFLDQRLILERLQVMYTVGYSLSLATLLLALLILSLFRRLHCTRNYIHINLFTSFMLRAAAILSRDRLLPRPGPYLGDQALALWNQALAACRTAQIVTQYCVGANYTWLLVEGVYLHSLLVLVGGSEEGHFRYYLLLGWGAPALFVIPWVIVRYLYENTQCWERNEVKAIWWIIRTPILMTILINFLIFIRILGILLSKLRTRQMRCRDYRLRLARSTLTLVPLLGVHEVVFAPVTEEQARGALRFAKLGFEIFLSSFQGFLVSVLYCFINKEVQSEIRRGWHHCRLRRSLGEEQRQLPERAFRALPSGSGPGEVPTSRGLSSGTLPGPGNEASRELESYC

human GIP receptor [2] = target: T1, human GIP receptor; assay: cAMP accumulation assay, agonism (ligand alone); format: cell-based; conditions: Table 1; for Emax: COS-7, intrinsic cAMP activity, COS-7 cells; for EC50: given as log EC50 (negative sign), read-out: cAMP agonism EC50 (log) (converted)
human GIP receptor [3] = target: T1, human GIP receptor; assay: cAMP accumulation assay, antagonism of a GIP-mediated cAMP response (50-80% of max); format: cell-based; conditions: for Fold change of IC50 versus GIP(5-30)NH2: fold change of IC50 from GIP(5-30)NH2
Description: The day after, the cells were washed twice with Hepes buffered saline (HBS) buffer and incubated with HBS and 1 mM 3-isobutyl-1-methylxanthine (IBMX) for 30 min at 37° C. […] The HitHunter™ cAMP XS assay (DiscoveRx) was carried out according to the manufacturer's instructions.

[4] = binding in 0.1% casein (absence of HSA), log value, read-out: logIC50 0.1% casein (converted)
[5] = heterologous competition binding, transiently transfected COS-7 cells expressing the human GIP receptor, read-out: Binding
[6] = transiently transfected COS-7 cells, Table 1 and text, read-out: cAMP antagonism nM (IC50, antagonistic potency)

Structure (SMILES) | Fold change HSA (2%)/Casein (0.1%) (human GIP receptor [1]) | Ki (human GIP receptor [1]) | IC50 (human GIP receptor [1]; [4]) | IC50 (human GIP receptor [1]; binding in presence of 2% HSA, read-out: logIC50 2% HSA (converted)) | Binding (+/−HSA) Fold (human GIP receptor [1]) | IC50 (human GIP receptor [1]; [5]) | Emax (human GIP receptor [2]) | Fold change of IC50 versus GIP(5-30)NH2 (human GIP receptor [3]) | IC50 (human GIP receptor [3]; [6]) | IC50 (human GIP receptor [1]; heterologous competition binding, transiently transfected COS-7 cells expressing the human GIP receptor, log value of the nM column, read-out: Binding log (converted)) | EC50 (human GIP receptor [2]) | IC50 (human GIP receptor [3]; antagonism of GIP-mediated cAMP response, COS-7 cells, read-out: cAMP accumulation IC50) | Affinity compared to GIP(3-30)NH2 (in words) (human GIP receptor [1]) | Ability to antagonize the GIP-mediated cAMP response (in words) (human GIP receptor [3]) | IC50 (human GIP receptor [1]; 0.1% casein, no HSA, Table 3b, read-out: Binding logIC50 0.1% casein (converted)) | IC50 (human GIP receptor [1]; 2% HSA, Table 3b, read-out: Binding logIC50 2% HSA (converted)) | IC50 (human GIP receptor [1]; Table 3b, initial data, read-out: Binding IC50) | Binding fold (paired) (human GIP receptor [1]; fold decrease in affinity compared to GIP(3-30)NH2, Table 3b) | Fold change in affinity, IC50 (plus HSA)/IC50 (minus HSA) (human GIP receptor [1]) | cAMP - antagonisme fold (paired) (human GIP receptor [3]; fold vs GIP(3-30)NH2, Table 3b)
CC[C@H](C)[C@H](NC(=O)[C@H](CO)NC(=O)[C@H](Cc1ccc(O)cc1)NC(=O)[C@H](CC(=O)O)NC(=O)[C@H](CO)NC(=O)[C@@H](NC(=O)[C@H](Cc1ccccc1)NC(=O)[C@@H](N)[C@@H](C)O)[C@@H](C)CC)C(=O)N[C@@H](C)C(=O)N[C@@H](CCSC)C(=O)N[C@@H](CC(=O)O)C(=O)N[C@@H](CCCCNC(=O)CCCCCCCCCCCCCCC(=O)O)C(=O)N[C@H](C(=O)N[C@@H](Cc1c[nH]cn1)C(=O)N[C@@H](CCC(N)=O)C(=O)N[C@@H](CCC(N)=O)C(=O)N[C@@H](CC(=O)O)C(=O)N[C@@H](Cc1ccccc1)C(=O)N[C@H](C(=O)N[C@@H](CC(N)=O)C(=O)N[C@@H](Cc1c[nH]c2ccccc12)C(=O)N[C@@H](CC(C)C)C(=O)N[C@@H](CC(C)C)C(=O)N[C@@H](C)C(=O)N[C@@H](CCC(N)=O)C(=O)N[C@@H](CCCCN)C(N)=O)C(C)C)[C@@H](C)CC [AT140, [hGIP(5-30)NH2—C16diacid/16]] | 1.5 | 2160 nM | 2000 nM | 3280 nM | 1.5 | 2160 nM | 0% | 7.4 | 205 nM |  |  |  |  |  |  |  |  |  |  | 
CC[C@H](C)[C@H](NC(=O)[C@H](CO)NC(=O)[C@H](Cc1ccc(O)cc1)NC(=O)[C@H](CC(=O)O)NC(=O)[C@H](CO)NC(=O)[C@@H](NC(=O)[C@H](Cc1ccccc1)NC(=O)[C@@H](N)[C@@H](C)O)[C@@H](C)CC)C(=O)N[C@@H](C)C(=O)N[C@@H](CCSC)C(=O)N[C@@H](CC(=O)O)C(=O)N[C@@H](CCCCN)C(=O)N[C@H](C(=O)N[C@@H](Cc1c[nH]cn1)C(=O)N[C@@H](CCC(N)=O)C(=O)N[C@@H](CCC(N)=O)C(=O)N[C@@H](CC(=O)O)C(=O)N[C@@H](Cc1ccccc1)C(=O)N[C@H](C(=O)N[C@@H](CC(N)=O)C(=O)N[C@@H](Cc1c[nH]c2ccccc12)C(=O)N[C@@H](CC(C)C)C(=O)N[C@@H](CC(C)C)C(=O)N[C@@H](C)C(=O)N[C@@H](CCCCNC(=O)CCCCCCCCCCCCCCC(=O)O)C(=O)N[C@@H](CCCCN)C(N)=O)C(C)C)[C@@H](C)CC [AT189, [hGIP(5-30)NH2[Q29K]-C16diacid/29]] (H-TFISDYSIAMDKIHQQDFVNWLLAK(C16 diacid)K-NH2; N-terminus assumed) | 3.2 |  |  |  | 3.2 |  | 12% | 3.0 | 79 nM | 126 nM and 118 nM | 100 nM and 79.4 nM |  |  |  |  |  |  |  |  | 
CC[C@H](C)[C@H](NC(=O)[C@H](CO)NC(=O)[C@H](Cc1ccc(O)cc1)NC(=O)[C@H](CC(=O)O)NC(=O)[C@H](CO)NC(=O)[C@@H](NC(=O)[C@H](Cc1ccccc1)NC(=O)[C@@H](N)[C@@H](C)O)[C@@H](C)CC)C(=O)N[C@@H](C)C(=O)N[C@@H](CCSC)C(=O)N[C@@H](CC(=O)O)C(=O)N[C@@H](CCCCN)C(=O)N[C@H](C(=O)N[C@@H](Cc1c[nH]cn1)C(=O)N[C@@H](CCC(N)=O)C(=O)N[C@@H](CCC(N)=O)C(=O)N[C@@H](CC(=O)O)C(=O)N[C@@H](CCCCNC(=O)CCCCCCCCCCCCCCC(=O)O)C(=O)N[C@H](C(=O)N[C@@H](CC(N)=O)C(=O)N[C@@H](Cc1c[nH]c2ccccc12)C(=O)N[C@@H](CC(C)C)C(=O)N[C@@H](CC(C)C)C(=O)N[C@@H](C)C(=O)N[C@@H](CCC(N)=O)C(=O)N[C@@H](CCCCN)C(N)=O)C(C)C)[C@@H](C)CC [AT182, [hGIP(5-30)NH2[F22K]-C16diacid/22]] (H-TFISDYSIAMDKIHQQDK(C16 diacid)VNWLLAQK-NH2; N-terminus assumed) | 3.0 |  |  |  | 1.4 | 962 nM | 13% | 21.9 | 634 nM |  | 1000 nM | 603 nM |  |  |  |  |  |  |  | 
CCCCCCCCCCCCCC(=O)N[C@H](C(=O)N[C@@H](Cc1ccccc1)C(=O)N[C@H](C(=O)N[C@@H](CO)C(=O)N[C@@H](CC(=O)O)C(=O)N[C@@H](Cc1ccc(O)cc1)C(=O)N[C@@H](CO)C(=O)N[C@H](C(=O)N[C@@H](C)C(=O)N[C@@H](CCSC)C(=O)N[C@@H](CC(=O)O)C(=O)N[C@@H](CCCCN)C(=O)N[C@H](C(=O)N[C@@H](Cc1c[nH]cn1)C(=O)N[C@@H](CCC(N)=O)C(=O)N[C@@H](CCC(N)=O)C(=O)N[C@@H](CC(=O)O)C(=O)N[C@@H](Cc1ccccc1)C(=O)N[C@H](C(=O)N[C@@H](CC(N)=O)C(=O)N[C@@H](Cc1c[nH]c2ccccc12)C(=O)N[C@@H](CC(C)C)C(=O)N[C@@H](CC(C)C)C(=O)N[C@@H](C)C(=O)N[C@@H](CCC(N)=O)C(=O)N[C@@H](CCCCN)C(N)=O)C(C)C)[C@@H](C)CC)[C@@H](C)CC)[C@@H](C)CC)[C@@H](C)O [AT121, [hGIP(5-30)NH2—C14/5]] | 5.7 |  | 158 nM |  |  |  | 0% |  | 54 nM |  |  |  | affinities in the same range as GIP(3-30)NH2 | high potent antagonists |  |  |  |  |  | 
CC[C@H](C)[C@H](NC(=O)[C@H](CO)NC(=O)[C@H](Cc1ccc(O)cc1)NC(=O)[C@H](CC(=O)O)NC(=O)[C@H](CO)NC(=O)[C@@H](NC(=O)[C@H](Cc1ccccc1)NC(=O)[C@@H](NC(=O)CNC(=O)[C@@H](N)CCC(=O)O)[C@@H](C)O)[C@@H](C)CC)C(=O)N[C@@H](C)C(=O)N[C@@H](CCSC)C(=O)N[C@@H](CC(=O)O)C(=O)N[C@@H](CCCCN)C(=O)N[C@H](C(=O)N[C@@H](CCCCNC(=O)CCCCCCCCCCCCCCC(=O)O)C(=O)N[C@@H](CCC(N)=O)C(=O)N[C@@H](CCC(N)=O)C(=O)N[C@@H](CC(=O)O)C(=O)N[C@@H](Cc1ccccc1)C(=O)N[C@H](C(=O)N[C@@H](CC(N)=O)C(=O)N[C@@H](Cc1c[nH]c2ccccc12)C(=O)N[C@@H](CC(C)C)C(=O)N[C@@H](CC(C)C)C(=O)N[C@@H](C)C(=O)N[C@@H](CCC(N)=O)C(=O)N[C@@H](CCCCN)C(N)=O)C(C)C)[C@@H](C)CC [AT158, [hGIP(3-30)NH2[H18K]-C16diacid/18]] (H-EGTFISDYSIAMDKIK(C16 diacid)QQDFVNWLLAQK-NH2; N-terminus assumed) |  |  |  |  |  |  | 6% |  | 5 nM |  |  |  |  |  | 7.9 nM | 16 nM | 7.9 nM | 1 fold | 2.0 fold | 0.1 fold
CC[C@H](C)[C@H](NC(=O)[C@H](CCCCNC(=O)CCCCCCCCCCCCCCC(=O)O)NC(=O)[C@H](Cc1ccc(O)cc1)NC(=O)[C@H](CC(=O)O)NC(=O)[C@H](CO)NC(=O)[C@@H](NC(=O)[C@H](Cc1ccccc1)NC(=O)[C@@H](N)[C@@H](C)O)[C@@H](C)CC)C(=O)N[C@@H](C)C(=O)N[C@@H](CCSC)C(=O)N[C@@H](CC(=O)O)C(=O)N[C@@H](CCCCN)C(=O)N[C@H](C(=O)N[C@@H](Cc1c[nH]cn1)C(=O)N[C@@H](CCC(N)=O)C(=O)N[C@@H](CCC(N)=O)C(=O)N[C@@H](CC(=O)O)C(=O)N[C@@H](Cc1ccccc1)C(=O)N[C@H](C(=O)N[C@@H](CC(N)=O)C(=O)N[C@@H](Cc1c[nH]c2ccccc12)C(=O)N[C@@H](CC(C)C)C(=O)N[C@@H](CC(C)C)C(=O)N[C@@H](C)C(=O)N[C@@H](CCC(N)=O)C(=O)N[C@@H](CCCCN)C(N)=O)C(C)C)[C@@H](C)CC [AT173, [hGIP(5-30)NH2[S11K]-C16diacid/11]] (H-TFISDYK(C16 diacid)IAMDKIHQQDFVNWLLAQK-NH2; N-terminus assumed) | 7.4 | 6 nM | 7.94 nM |  | 9.7 | 8 nM | 0% | 0.3 | 10 nM |  |  |  |  | highest antagonistic potencies |  |  |  |  | 7.4 fold | 
